Results published in US20110165119A1, “TELAPREVIR DOSING REGIMEN” (priority 2008, published 2011).

Key:
HCV NS3-4A protease = target: T1, HCV NS3-4A protease (Hepatitis C virus genotype 1a, UniProt P27958); experiment: in vitro potency against HCV NS3-4A protease; type: biochemical; details: relative to telaprevir
T1 construct: against the HCV NS3-4A protease

[1] = in vivo; cited from earlier work

T1 sequence (P27958 1027-1657): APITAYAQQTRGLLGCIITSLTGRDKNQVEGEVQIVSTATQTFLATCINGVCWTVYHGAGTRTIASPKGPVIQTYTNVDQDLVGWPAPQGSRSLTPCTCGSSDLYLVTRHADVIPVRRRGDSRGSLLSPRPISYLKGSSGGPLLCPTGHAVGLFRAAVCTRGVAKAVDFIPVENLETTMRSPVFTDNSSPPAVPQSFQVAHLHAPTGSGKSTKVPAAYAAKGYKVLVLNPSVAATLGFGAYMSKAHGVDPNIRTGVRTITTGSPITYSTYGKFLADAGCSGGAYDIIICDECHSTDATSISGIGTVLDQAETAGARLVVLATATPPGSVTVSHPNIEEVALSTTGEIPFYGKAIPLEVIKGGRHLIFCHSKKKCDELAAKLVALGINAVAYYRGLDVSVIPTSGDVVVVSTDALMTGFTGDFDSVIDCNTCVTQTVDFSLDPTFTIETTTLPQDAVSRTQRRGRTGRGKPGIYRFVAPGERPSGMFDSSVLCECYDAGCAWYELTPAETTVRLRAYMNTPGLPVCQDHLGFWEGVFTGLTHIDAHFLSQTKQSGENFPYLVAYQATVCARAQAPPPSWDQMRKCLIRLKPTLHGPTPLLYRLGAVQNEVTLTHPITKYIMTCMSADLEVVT
T1 sequence (P27958 1658-1711): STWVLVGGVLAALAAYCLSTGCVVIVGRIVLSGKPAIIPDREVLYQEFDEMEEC

times less potent than telaprevir against the HCV NS3-4A protease (HCV NS3-4A protease)	Compound	oral bioavailability [1]
about 30 times	CCCC(NC(=O)C1C2CCCC2CN1C(=O)C(NC(=O)C(NC(=O)c1cnccn1)C1CCCCC1)C(C)(C)C)C(=O)C(=O)NC1CC1 (single isomer, unassigned) [R-diastereisomer]	
	CCC[C@H](NC(=O)[C@@H]1[C@H]2CCC[C@H]2CN1C(=O)[C@@H](NC(=O)[C@@H](NC(=O)c1cnccn1)C1CCCCC1)C(C)(C)C)C(=O)C(=O)NC1CC1 (single isomer, unassigned) [Telaprevir]	orally bioavailable
